Activity calls are given as the source filed them.
Assays:
Type in all cases: cell-based
[1] = biological target: Early growth response protein 1 (Homo sapiens) (UniProt P18146); experiment: Inhibition of EGR-1 in TNF-alpha-stimulated human HaCaT cells assessed as decrease in TSLP level at 20 to 40 uM pretreated for 30 mins followed by TNF-alpha stimulation measured after 6 hrs by RT-PCR analysis; conditions: dose 20-40 µM, time 390.0 min
[2] = biological target: Early growth response protein 1 (Homo sapiens) (UniProt P18146); experiment: Inhibition of EGR-1 in TNF-alpha-stimulated human HaCaT cells assessed as decrease in IL-6 level at 20 to 40 uM pretreated for 30 mins followed by TNF-alpha stimulation measured after 6 hrs by RT-PCR analysis; conditions: dose 20-40 µM, time 390.0 min
[3] = biological target: Early growth response protein 1 (Homo sapiens) (UniProt P18146); experiment: Inhibition of EGR-1 in TNF-alpha-stimulated human HaCaT cells assessed as decrease in IL-1beta level at 20 to 40 uM pretreated for 30 mins followed by TNF-alpha stimulation measured after 6 hrs by RT-PCR analysis; conditions: dose 20-40 µM, time 390.0 min
[4] = biological target: Early growth response protein 1 (Homo sapiens) (UniProt P18146); experiment: Inhibition of EGR-1 DNA binding activity in TNF-alpha-stimulated human HaCaT cells assessed as suppression of DNA-protein complex formation treated for 1 hr by EMSA; conditions: dose 20-40 µM
[5] = biological target: Early growth response protein 1 (Homo sapiens) (UniProt P18146); experiment: Inhibition of EGR-1 in TNF-alpha-stimulated human HaCaT cells assessed as decrease in IL-31 level at 20 to 40 uM pretreated for 30 mins followed by TNF-alpha stimulation measured after 6 hrs by RT-PCR analysis; conditions: dose 20-40 µM, time 390.0 min

Measured: inhibition

Chain of Early growth response protein 1 (Homo sapiens) (P18146 whole entry, looked up): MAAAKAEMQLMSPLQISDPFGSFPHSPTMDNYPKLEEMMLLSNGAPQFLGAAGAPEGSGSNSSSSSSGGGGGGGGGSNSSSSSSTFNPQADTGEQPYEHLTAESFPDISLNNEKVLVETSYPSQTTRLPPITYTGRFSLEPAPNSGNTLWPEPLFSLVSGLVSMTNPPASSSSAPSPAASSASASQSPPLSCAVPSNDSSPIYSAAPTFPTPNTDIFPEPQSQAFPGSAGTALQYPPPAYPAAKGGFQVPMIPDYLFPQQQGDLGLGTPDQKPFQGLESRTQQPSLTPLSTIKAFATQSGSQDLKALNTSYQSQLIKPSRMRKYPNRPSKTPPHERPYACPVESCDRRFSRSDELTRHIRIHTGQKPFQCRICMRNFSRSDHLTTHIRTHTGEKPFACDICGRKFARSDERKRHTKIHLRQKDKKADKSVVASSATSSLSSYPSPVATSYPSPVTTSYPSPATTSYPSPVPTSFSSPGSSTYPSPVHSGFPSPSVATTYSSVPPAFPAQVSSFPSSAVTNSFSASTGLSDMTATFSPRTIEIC

COc1ccc(C2CC(c3c(O)ccc4ccccc34)=NN2)cc1 (stereo not given)
active: [1] | [2] | [3] | [4] Dose-dependent-effect | [5]

Source: ChEMBL document CHEMBL6083211, “Pyrazolines inhibiting the activity of the early growth response-1 DNA-binding domain” (Bioorg Med Chem Lett, 2024)
